Data on one molecule can be found in patent publication US20190343793A1, “COMPOSITIONS COMPRISING A CANNABINOID RECEPTOR BINDING LIGAND” (NOVALIQ GMBH, priority 2016, published 2019).

The nature of this series: Storage stability in a liquid vehicle comprising a semifluorinated alkane.

`CCCCCc1cc(O)c2c(c1)OC(C)(C)[C@@H]1CCC(C)=C[C@@H]21` [delta-9-Tetrahydrocannabinol (THC), (−)-(6aR,10aR)-6,6,9-Trimethyl-3-pentyl-6a,7,8,10a-tetrahydro-6H-benzo[c]chromen-1-ol]: the “Storage period when dissolved or suspended in liquid vehicle comprising semifluorinated alkane” value (liquid vehicle comprising at least one semifluorinated alkane) was “up to 2 years”. The “Stability when air was not excluded” value (liquid vehicle with high content of, or essentially consisting of, F4H5 or F6H8) is reported as “stable even when air was not excluded”.
